Results taken from patent publication US10932465B2, “Antimicrobial mixture containing 4-(3-ethoxy-4-hydroxyphenyl)butan-2-one and a diol, and cosmetic composition containing same” (L'OREAL, priority 2017, dated 2021).
Structures can show the parent of a compound that is named as a salt.

Legend:
[1] = system: Candida albicans ATCC 10231; experiment: MIC / microbial growth test, 96-well microplate, optical density at 620 nm, with FIC index; format: cell-based
From the text: (§1) FIC Index=([…]) with: • MICa with B: minimum concentration of product A in the combination A+B which makes it possible to obtain an inhibitory effect • MICb with A: minimum concentration of product B in the combination A+B which makes it possible to obtain an inhibitory effect. • MICa: minimum inhibitory concentration of product A alone. • MICb: minimum inhibitory concentration of product B alone. […] As regards the combinations tested, MICa with b and MICb with a are the respective concentrations of A and of B in the combinations which make it possible to obtain a microbial growth percentage of less than or equal to 25%. When the FIC index value is less than or equal to 1, it is considered that the combination of test compounds has a synergistic effect. The combinations of compounds A and B were tested on the following strains: Aspergillus niger and Candida albicans. […] A 96-well microplate and an incubation temperature of 32.5° C. are used. The incubation time of the microplate is: • from 24 hours to 48 hours aerobically for Aspergillus niger, • from 18 hours to 24 hours aerobically for Candida albicans. A 10% (weight/volume) stock solution was prepared by mixing 1 g of compound in 9 ml of aqueous 1%o agar solution. […] 50 μL of each of the daughter solutions obtained containing compound A or B1 or B2 are added to the microplate wells. 100 μL of Sabouraud liquid nutrient broth seeded with the strain Aspergillus niger and 50 μL of aqueous 1%o agar solution are also added thereto. 50 μL of each of the daughter solutions obtained containing compound A and 50 μL of each of the daughter solutions obtained containing compound B1 or B2 are added to the microplate wells. 100 μL of Sabouraud liquid nutrient broth seeded at double concentration with the strain Aspergillus niger are also added thereto. A positive microbial growth control was also prepared. […] This control corresponds to 100 μL of double concentration sterile Sabouraud liquid nutrient broth+100 μL of double concentration compound A or B1 or B2.

[2] = system: Aspergillus niger ATCC 6275; experiment: as above; format: cell-based
From the text: as §1, with “B2. […] In the two cases (test and control), the inoculum represents the concentration of the strain Aspergillus niger present in the final volume of the wells (200 μL) and is between 2 and 6×10^5 cfu/ml of Aspergillus niger.” for “B2.”

[3] = Candida albicans, growth <= 25%
[4] = Aspergillus niger, growth <= 25%

## CCOc1cc(CCC(C)=O)ccc1O [A, 4-(3-ethoxy-4-hydroxyphenyl)butan-2-one]
[1]; 0.025 A + 0 B1 (weight %)
  microbial growth percentage: 63%
[1]; 0.025 A + 0 B2 (weight %)
  microbial growth percentage: 83%
[1]; 0.05 A + 0 B1 (weight %)
  microbial growth percentage: 47%
[1]; 0.05 A + 0 B2 (weight %)
  microbial growth percentage: 70%
[1]; 0.1 A + 0 B1 (weight %)
  microbial growth percentage: 22%
[1]; 0.1 A + 0 B2 (weight %)
  microbial growth percentage: 50%
[1]; 0.2 A + 0 B2 (weight %)
  microbial growth percentage: 10%
[1]; Candida albicans, series with B1, growth <= 25%
  % MIC of A alone: 0.1%
[2]; 0.025 A + 0 B2 (weight %)
  microbial growth percentage: 228%
[2]; 0.05 A + 0 B2 (weight %)
  microbial growth percentage: 109%
[2]; 0.0625 A + 0 B1 (weight %)
  microbial growth percentage: 83%
[2]; 0.0625 A + 0 B3 (weight %)
  microbial growth percentage: 85%
[2]; 0.1 A + 0 B2 (weight %)
  microbial growth percentage: 73%
[2]; 0.125 A + 0 B1 (weight %)
  microbial growth percentage: 49%
[2]; 0.125 A + 0 B3 (weight %)
  microbial growth percentage: 48%
[2]; 0.2 A + 0 B2 (weight %)
  microbial growth percentage: 72%
[2]; 0.25 A + 0 B1 (weight %)
  microbial growth percentage: 5%
[2]; 0.25 A + 0 B3 (weight %)
  microbial growth percentage: 7%
[2]; 0.4 A + 0 B2 (weight %)
  microbial growth percentage: 6%
[2]; Aspergillus niger, series with B1, growth <= 25%
  % MIC of A alone: 0.25%
[2]; Aspergillus niger, series with B2, growth <= 25%
  % MIC of A alone: 0.4%
[2]; Aspergillus niger, series with B3, growth <= 25%
  % MIC of A alone: 0.25%

## N=C(NCCCCCCNC(=N)NC(=N)Nc1ccc(Cl)cc1)NC(=N)Nc1ccc(Cl)cc1.O=C(O)[C@H](O)[C@@H](O)[C@H](O)[C@H](O)CO.O=C(O)[C@H](O)[C@@H](O)[C@H](O)[C@H](O)CO [B1, chlorhexidine digluconate, reference compound]
[1]; 0 A + 0.00025 B1 (weight %)
  microbial growth percentage: 59%
[1]; 0 A + 0.0005 B1 (weight %)
  microbial growth percentage: 32%
[1]; 0 A + 0.001 B1 (weight %)
  microbial growth percentage: 3%
[1]; [3]
  % MIC of B1 alone: 0.001%
[2]; 0 A + 0.0025 B1 (weight %)
  microbial growth percentage: 98%
[2]; 0 A + 0.005 B1 (weight %)
  microbial growth percentage: 98%
[2]; 0 A + 0.01 B1 (weight %)
  microbial growth percentage: 7%
[2]; [4]
  % MIC of B1 alone: 0.01%

## [H]/N=C(\N/C(=N/[H])NCCCCCCNC(=N)NC(=N)Nc1ccc(Cl)cc1)Nc1ccc(Cl)cc1 [B2, chlorhexidine hydrochloride, reference compound]
[1]; 0 A + 0.00025 B2 (weight %)
  microbial growth percentage: 82%
[1]; 0 A + 0.0005 B2 (weight %)
  microbial growth percentage: 64%
[1]; 0 A + 0.001 B2 (weight %)
  microbial growth percentage: 14%
[1]; [3]
  % MIC of B2 alone: 0.001%
[2]; 0 A + 0.025 B2 (weight %)
  microbial growth percentage: 194%
[2]; 0 A + 0.05 B2 (weight %)
  microbial growth percentage: 121%
[2]; 0 A + 0.1 B2 (weight %)
  microbial growth percentage: 137%
[2]; 0 A + 0.2 B2 (weight %)
  microbial growth percentage: 2%
[2]; [4]
  % MIC of B2 alone: 0.02%
